The source of these data is ChEMBL document CHEMBL4145513, “An overview on crystal structures of InhA protein: Apo-form, in complex with its natural ligands and inhibitors” (Eur J Med Chem, 2018).

Molecules are shown by their SMILES. ≈ marks a conversion by molar mass, not a printed value. A value given as a limit tells only on which side of the number the result lay.

The target of assay [1] is T1, Enoyl-[acyl-carrier-protein] reductase [NADH] (Mycobacterium tuberculosis, UniProt P9WGR1).
T1 sequence (P9WGR1 whole entry): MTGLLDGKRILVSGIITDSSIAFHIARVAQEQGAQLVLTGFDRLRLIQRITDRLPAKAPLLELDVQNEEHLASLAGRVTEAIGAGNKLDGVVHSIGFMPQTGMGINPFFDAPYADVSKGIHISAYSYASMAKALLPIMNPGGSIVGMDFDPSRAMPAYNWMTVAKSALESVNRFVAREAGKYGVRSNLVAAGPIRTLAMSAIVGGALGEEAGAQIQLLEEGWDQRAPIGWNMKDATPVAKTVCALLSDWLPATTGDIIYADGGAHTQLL
Put plainly: Inhibition of Mycobacterium tuberculosis InhA.

Assay [2] relates to Mycobacterium tuberculosis. The assay can be described thus: Antimycobacterial activity against Mycobacterium tuberculosis. In kind it is functional.
Assay [3] deals with T1, Enoyl-[acyl-carrier-protein] reductase [NADH]. Put plainly: Inhibition of Mycobacterium tuberculosis InhA using trans-2-decenoyl-CoA as substrate by spectrophotometric analysis.
For assay [4] the target is unchanged.
For assay [5] the target is unchanged. The assay can be described thus: Binding affinity to Mycobacterium tuberculosis InhA in presence of NAD+ by surface plasmon resonance assay.
For assay [6] the target is unchanged. Put plainly: Binding affinity to Mycobacterium tuberculosis InhA in presence of NADH by surface plasmon resonance assay. Background: Surface plasmon resonance follows binding to a sensor surface in real time, without labels.
Assay [7] shares this target. The assay can be described thus: Binding affinity to Mycobacterium tuberculosis InhA in presence of NADH.
For assay [8] the target is unchanged. Put plainly: Inhibition of Mycobacterium tuberculosis InhA using dodecenoyl-CoA as substrate in presence of NADH by fluorimetric analysis.
For assay [9] the target is unchanged. Put plainly: Binding affinity to Mycobacterium tuberculosis InhA in presence of NAD+.
For assay [10] the target is unchanged. Put plainly: Inhibition of Mycobacterium tuberculosis InhA using trans-2-dodecenoyl-CoA as substrate.
Assay [11] deals with Mycobacterium tuberculosis. The assay can be described thus: Antimycobacterial activity against Mycobacterium tuberculosis after 5 days by fluoresence analysis. It is filed as functional. The note with it: 120 h.
Assay [12] addresses T1, Enoyl-[acyl-carrier-protein] reductase [NADH]. The assay can be described thus: Binding affinity to Mycobacterium tuberculosis InhA in presence of TCEP and NADH by isothermal titration calorimetry. For orientation: Isothermal titration calorimetry measures the heat released or taken up as one component is titrated into another.

The Ki is a dissociation constant, usually derived from enzyme kinetics or from competition with a known ligand. The MIC50 is the lowest concentration that inhibits either 50% of growth or 50% of the strains tested, depending on the study. Consider `CCCCCCc1ccc(Oc2ccccc2C#N)c(O)c1`, for which the Ki in assay [1] is 2.14 nM. The molecule further came in with an MIC50 in [2] of 8.4 µM (≈ 2.48 µg/mL).

In turn, `Cc1ccn(C(C)c2nnc(Nc3ccn(Cc4c(F)cccc4Cl)n3)s2)n1` (centres undefined) yielded a Ki in [1] of 2 nM. The molecule also had an MIC50 in [2] of 1 µM (≈ 0.418 µg/mL).

`NC(=O)c1c[n+]([C@@H]2O[C@H](COP(=O)(O)OP(=O)(O)OC[C@H]3O[C@@H](n4cnc5c(N)ncnc54)[C@H](O)[C@@H]3O)[C@@H](O)[C@H]2O)ccc1C(=O)c1ccncc1` registered a Ki in [3] of 0.75 nM. That is a sub-nanomolar value.

Molecule `CCc1cc(C(=O)c2cc[n+]([C@@H]3O[C@H](COP(=O)(O)OP(=O)(O)OC[C@H]4O[C@@H](n5cnc6c(N)ncnc65)[C@H](O)[C@@H]4O)[C@@H](O)[C@H]3O)cc2C(N)=O)ccn1` had a Ki in assay [1] of 7 nM. This molecule also came in with an MIC50 in [2] of 3 µM.

Usually IC50 stands for the concentration needed to halve the response being measured. The Kd is the concentration at which binding is half-saturated. Regarding `CNC(=O)CN(Cc1ccc(F)cc1)C(=O)[C@H]1CC[C@@H](NC(=O)Cc2sc3ccccc3c2C)CC1`, half-maximal inhibition in assay [4] (IC50) required 600 nM. The figures for the Kd in assay [5] and in assay [6] were 46700 nM and 94 nM, respectively.

With `Cc1csc(C(C)(O)c2nnc(Nc3ccn(Cc4c(F)cccc4F)n3)s2)n1` (centres undefined), the Kd was determined as 11.5 nM in assay [7] and 9300 nM in assay [9]. Also, in assay [8], the IC50 is 3 nM. The molecule also yielded an MIC50 in assay [2] of 0.19 µM (≈ 0.0826 µg/mL).

On to `CCCCCCc1ccc(Oc2ccccc2Br)c(O)c1`, for which the IC50 in assay [1] was 10 nM. The molecule also registered an MIC50 in assay [2] of 8.8 µM (≈ 3.07 µg/mL).

In assay [1], `Oc1cc(CCc2ccccc2)ccc1Oc1ccc(Cl)cc1Cl` came in with an IC50 of 21 nM. In [2], this molecule came in with an MIC50 of 52 µM (≈ 18.7 µg/mL).

In [10], `CC1(C)CCC(Cc2cc(O)c(-c3ccccc3)c(=O)[nH]2)CC1` had an IC50 of 570 nM. Moreover, the MIC50 in assay [2] was 0.08 µM (≈ 0.0249 µg/mL).

What is called MIC99 is an inhibitory concentration at the 99% level, which refers to growth in some studies and to a panel of isolates in others. A higher MIC99 goes with lower susceptibility. Regarding `CCCCc1ccnc(Cc2ccc(Oc3ccc(Cl)cc3Cl)c(O)c2)c1`, the Ki in assay [1] amounted to 1100 nM. In [2], this molecule yielded an MIC99 of 6.4 µM (≈ 2.57 µg/mL).

In assay [4], `CNC(=O)CN1CCN(C(=O)[C@H]2CC[C@@H](NC(=O)Cc3sc4ccccc4c3C)CC2)[C@@H](Cc2ccccc2)C1=O` had an IC50 of 65 nM. Also, the Kd in assay [5] stood at 13400 nM; in assay [6] it was 340 nM. Besides, the MIC50 in assay [11] is 13 µM (≈ 7.47 µg/mL).

Turning to `Oc1cc(Cl)ccc1Oc1ccc(Cl)cc1Cl` [TRICLOSAN], the MIC99 in assay [2] was 43.1 µM (≈ 12.5 µg/mL).

Molecule `O=c1[nH]c(CC2CCCCC2)cc(O)c1-c1ccccc1` registered an IC50 in assay [10] of 590 nM. The dissociation constant Kd in assay [12] was determined as 560 nM. This molecule registered an MIC50 in [2] of 0.31 µM (≈ 0.0878 µg/mL).

For `Oc1cc(CC2CCCCC2)ccc1Oc1ccc(Cl)cc1Cl`, half-maximal inhibition in assay [1] (IC50) required 110 nM. The molecule also yielded an MIC50 in assay [2] of 27 µM (≈ 9.48 µg/mL).

Take `CNC(=O)CN(C(=O)Cc1ccc(-n2cccn2)cc1)C1CCN(c2ccccn2)CC1`: it took 5900 nM to reach half-maximal inhibition in assay [4] (IC50). The Kd in assay [5] was above 100000 nM; in assay [6] it was 36.8 nM. Moreover, the MIC50 in [11] was found to be 50 µM (≈ 21.6 µg/mL).

The molecule `Oc1cc(Cc2ccccc2)ccc1Oc1ccc(Cl)cc1Cl` showed an IC50 in assay [1] of 51 nM. In addition, the MIC50 in assay [2] came to 27 µM (≈ 9.32 µg/mL).

In turn, `CNC(=O)[C@@H]1C[C@H](NC(=O)[C@@H](NC(=O)c2ccc(Cn3cccn3)cc2)[C@@H](C)OC(C)(C)C)CN1C(=O)c1ccccc1` registered an IC50 in [4] of 12000 nM. The Kd in assay [5] was determined as 49000 nM; in assay [6], 55 nM. In addition, the MIC50 in assay [11] was determined as 0.13 µM (≈ 0.0765 µg/mL).

The molecule `CCCCCCc1ccc(Oc2ccccc2[N+](=O)[O-])c(O)c1` displayed an MIC50 in [2] of 39.6 µM (≈ 12.5 µg/mL).

`CCCCCCc1ccc(Oc2ccccc2Cl)c(O)c1` yielded an MIC50 in assay [2] of 5.1 µM (≈ 1.55 µg/mL).

With `NC(=O)c1c[n+]([C@@H]2O[C@H](COP(=O)(O)OP(=O)(O)OC[C@H]3O[C@@H](n4cnc5c(N)ncnc54)[C@H](OP(=O)(O)O)[C@@H]3O)[C@@H](O)[C@H]2O)ccc1C(=O)c1ccncc1`, the Ki in [1] is 130 nM.

Turning to `CNC(=O)c1cnc(NC2CCN(c3ccccn3)CC2)c(NCc2ccc(F)c(Oc3ccccc3)c2)c1`, the IC50 in [4] was 297 nM. The Kd is above 100000 nM in assay [5] and 250 nM in assay [6]. This molecule also came in with an MIC50 in assay [11] of 25 µM (≈ 13.2 µg/mL).

In [1], `CCCc1cc(C(=O)c2cc[n+]([C@@H]3O[C@H](COP(=O)(O)OP(=O)(O)OC[C@H]4O[C@@H](n5cnc6c(N)ncnc65)[C@H](O)[C@@H]4O)[C@@H](O)[C@H]3O)cc2C(N)=O)ccn1` registered a Ki of 2 nM. Also, the MIC50 in [2] is 2.7 µM.

The molecule `CCCCCc1ccc(Oc2ccc(Cl)cc2Cl)c(O)c1` gave a Ki in assay [1] of 11.8 nM. For the same molecule, the MIC99 in [2] was 3.5 µM (≈ 1.14 µg/mL).

The molecule `CCCCCCc1ccc(Oc2ccccc2C)c(O)c1` displayed an MIC50 in assay [2] of 10.9 µM (≈ 3.1 µg/mL). This lies in the double-digit micromolar range.

Consider `Cc1csc(C(C)(O)c2n[nH]/c(=N\C(=O)c3c(F)cccc3F)s2)n1` (centres undefined), for which the IC50 in [8] stood at 200 nM. Further, in assay [2], the MIC50 was found to be 3.75 µM (≈ 1.43 µg/mL).

The MIC90 is the lowest concentration that inhibits either 90% of growth or 90% of the strains tested, depending on the study. For the molecule `Cc1cc(C)n(Cc2ccc(C(=O)NCc3ccc(F)cc3Cl)cc2)n1`, in assay [1], the Ki turned out to be 50 nM. Moreover, the MIC90 in [2] came to 10 µM (≈ 3.72 µg/mL).

Broadly, the MIC is the lowest concentration that inhibits growth of the organism. Higher therefore signals weaker potency. In assay [2], `NNC(=O)c1ccncc1` [ISONIAZID] displayed an MIC of 1.8 µM (≈ 0.247 µg/mL).
